Patent US4582821A, “Inhibition of cyclic nucleotide independent protein kinases” (E. I. Du Pont de Nemours and Company, priority 1983, dated 1986)

Tests used:
[1] = test system: A-431 plasma membrane extracts (EGF-mediated protein phosphorylation); test: Protein phosphorylation in solubilized A-431 plasma membrane extracts, with or without EGF; format: biochemical, human
Method in brief: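 Triton X-100-solubilized A-431 plasma membranes (15-150 μg protein) in 20 mM Hepes pH 7.4 with 1 mM MnCl2, ± 100 ng EGF, preincubated with compound 10 min at ~23°, then 10 min at 0°. Phosphorylation started with 15 μM [γ-32P]ATP, stopped after 3 min at 0°; TCA-precipitated radioactivity counted.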

[2] = target: T1, p130^fps (UniProt P00530+P03323); test: Immune complex phosphorylation by p130fps immunoprecipitates of FSV-transformed cells; format: biochemical, Fujinami sarcoma virus (FSV); conditions: for Activity (cpm), FSV: anti-gag immunoprecipitates, no inhibitor 27036; for Activity (cpm), Control: extracts immunoprecipitated with normal serum, no inhibitor 2624
T1 construct: anti-gag serum and Staphylococcus protein A suspension (for FSV-transformed cells); viral gag-derived N-terminal portion (natural gag-fps fusion); expressed in transfected cells; immune complex with anti-gag serum and Staphylococcus protein A
Protocol: In this experiment, Boc-LeuCH2 Br was tested as an inhibitor of pp60^src and p130^fps, the tyrosine-specific protein kinases encoded by the transforming genes of RSV and Fujinami sarcoma virus, respectively.
These viral gene products were partially purified by preparation of immune complexes substantially according to the technique described by Collett et al., Proc. Nat. Acad. Sci. USA 75:2021 (1978). In this procedure, immunoprecipitates are prepared by incubation of extracts of virus-transformed cells with tumor-bearing rabbit serum (TBR) and Staphylococcus protein A suspension (for RSV-transformed cells) or anti-gag serum and Staphylococcus protein A suspension (for FSV-transformed cells).
Assay mixtures contained, in a final volume of 70 μL, 100 μg of immune complex protein, 20 mM Hepes, pH 7.4, and 1 mM MnCl2. Phosphorylation was initiated by addition of 1 μM (4 μCi) [γ-^32 P] ATP. After 10 minutes at about 23°, reactions were terminated by pipetting 20 μL aliquots of assay mixture onto 2×2 cm squares of Whatman 3 MM filter paper, which were immediately suspended in 10% TCA/10 mM sodium pyrophosphate. […] Controls for the immunoprecipitation procedure were prepared by immunoprecipitating transformed cell extracts with normal serum. Values in parentheses represent specific phosphorylation induced by virus-transformed cells.
In a related experiment, the capacity of Boc-LeuCH2 Br to inhibit phosphorylation of casein by p130^fps was determined. These tests were conducted substantially as described above, except 1 mg/mL casein was added to assay mixtures as a substrate, and reactions were terminated by addition of 2.5 mM unlabeled ATP and immediate cooling to 0°. Phosphorylated casein was separated from immunoprecipitate suspensions by centrifugation at 3,000 xg for 3 minutes. The resulting pellets were resuspended in 70 μL of 10 mM Hepes, pH 7.5, and 20 μL aliquots were pipetted onto filter paper squares as previously described.
This experiment was conducted substantially according to the procedures described in Example 17, above. In Table 5, "FSV" refers to immunoprecipitates of FSV-transformed cell extracts prepared by addition of anti-gag serum; controls were extracts immunoprecipitated with normal serum.

[3] = target: T2, A-431 cell EGF receptor (Homo sapiens, UniProt P00533); test: Protein phosphorylation of A-431 cell membrane EGF receptors (intact membranes, EGF present); format: biochemical; conditions: 600 nmoles/mg protein, intact A-431 membranes
T2 construct: intact A-431 cell membranes were employed, rather than solubilized extracts; endogenous in cells; host or cells: A-431 human epidermoid carcinoma cells (plasma membranes)
T2 sequence (P00533 25-1210): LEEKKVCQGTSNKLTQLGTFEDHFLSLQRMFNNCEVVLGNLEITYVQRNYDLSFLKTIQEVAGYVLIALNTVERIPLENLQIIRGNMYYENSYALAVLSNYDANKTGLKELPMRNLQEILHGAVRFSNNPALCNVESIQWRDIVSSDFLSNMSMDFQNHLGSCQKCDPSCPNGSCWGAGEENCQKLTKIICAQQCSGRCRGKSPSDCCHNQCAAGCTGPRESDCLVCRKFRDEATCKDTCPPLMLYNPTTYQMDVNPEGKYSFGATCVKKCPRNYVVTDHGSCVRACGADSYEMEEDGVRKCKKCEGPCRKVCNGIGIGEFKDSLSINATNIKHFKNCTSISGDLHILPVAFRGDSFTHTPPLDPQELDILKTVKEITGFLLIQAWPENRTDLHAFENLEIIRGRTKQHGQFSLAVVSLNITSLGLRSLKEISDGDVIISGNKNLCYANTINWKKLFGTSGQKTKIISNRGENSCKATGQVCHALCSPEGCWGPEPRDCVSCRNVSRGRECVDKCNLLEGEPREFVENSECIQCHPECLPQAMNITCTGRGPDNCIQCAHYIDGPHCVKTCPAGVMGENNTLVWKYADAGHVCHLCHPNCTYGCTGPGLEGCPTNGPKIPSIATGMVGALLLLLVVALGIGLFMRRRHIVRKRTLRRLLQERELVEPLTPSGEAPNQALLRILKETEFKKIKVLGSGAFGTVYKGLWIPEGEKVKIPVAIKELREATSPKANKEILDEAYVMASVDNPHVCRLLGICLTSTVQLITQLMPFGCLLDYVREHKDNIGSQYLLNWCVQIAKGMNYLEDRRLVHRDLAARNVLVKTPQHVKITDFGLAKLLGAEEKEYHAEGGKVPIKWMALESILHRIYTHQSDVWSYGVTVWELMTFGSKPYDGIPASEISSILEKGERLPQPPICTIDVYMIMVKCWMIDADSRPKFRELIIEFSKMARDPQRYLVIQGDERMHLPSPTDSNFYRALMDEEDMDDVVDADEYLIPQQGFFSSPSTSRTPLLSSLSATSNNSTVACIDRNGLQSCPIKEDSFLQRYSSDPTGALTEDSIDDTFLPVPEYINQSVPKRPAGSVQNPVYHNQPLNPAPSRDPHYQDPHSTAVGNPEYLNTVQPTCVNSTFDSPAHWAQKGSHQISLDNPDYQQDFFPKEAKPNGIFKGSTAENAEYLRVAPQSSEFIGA
Method in brief: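 Intact A-431 membranes with 1 mM ouabain, 20 mM Hepes pH 7.4, 1 mM MnCl2 and 100 ng EGF, preincubated with peptide halomethyl ketones (ethanol vehicle) ~23° for 10 min, then 10 min at 0°. Phosphorylation started with 15 μM [γ-32P]ATP, run 6 min at 0°; TCA-precipitated radioactivity counted by scintillation.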

Question: What does the source list for `CC(C)CC(NC(=O)OC(C)(C)C)C(=O)CBr` (centres unmarked) [Boc-LeuCH2 Br]?
Answer: % inhibition, EGF Added ([1]; 400 nmol/mg protein): 65%; EGF Added (pmol 32P incorporated/min/mg protein) ([1]; 400 nmol/mg protein, control 20.2): 7.0 pmol^32 P incorporated/min/mg; % inhibition, EGF Added ([1]; 477 nmol/mg protein): 72%; EGF Added (pmol 32P incorporated/min/mg protein) ([1]; 477 nmol/mg protein, control 96.2): 27.4 pmol^32 P incorporated/min/mg; % inhibition, No EGF Added ([1]; 400 nmol/mg protein): 69%; No EGF Added (pmol 32P incorporated/min/mg protein) ([1]; 400 nmol/mg protein, control 7.3): 2.3 pmol^32 P incorporated/min/mg; % inhibition, No EGF Added ([1]; 477 nmol/mg protein): 74%; No EGF Added (pmol 32P incorporated/min/mg protein) ([1]; 477 nmol/mg protein, control 21.6): 5.6 pmol^32 P incorporated/min/mg; % inhibition ([2]; 250 nmoles/mg protein): 48%; Activity (cpm), FSV ([2]; 250 nmoles/mg protein): 13932 cpm; Activity (cpm), Control ([2]; 250 nmoles/mg protein): 2370 cpm; % inhibition ([2]; 500 nmoles/mg protein): 69%; Activity (cpm), FSV ([2]; 500 nmoles/mg protein): 8344 cpm; Activity (cpm), Control ([2]; 500 nmoles/mg protein): 2180 cpm; Immune Complex Phosphorylation, specific phosphorylation (in parentheses) ([2]; p130fps + anti-gag serum, 250 nmoles per mg protein, no inhibitor 20104): 6324 cpm; Immune Complex Phosphorylation ([2]; p130fps + anti-gag serum, 250 nmoles per mg protein, no inhibitor 29244): 15222 cpm; Immune Complex Phosphorylation ([2]; p130fps + control serum, 250 nmoles per mg protein, no inhibitor 9140): 8898 cpm; Immune Complex Phosphorylation ([2]; related experiment with 1 mg/mL casein, p130fps + anti-gag serum, no inhibitor 7663): 1656 cpm; Immune Complex Phosphorylation ([2]; related experiment with 1 mg/mL casein, p130fps + control serum, no inhibitor 1184): 1286 cpm; % inhibition [3]: 29%
